This is an account of results in patent US20180125774A1, “Method and Composition for Visible Light Dryable Nail Coatings” (priority 2016, published 2018).

Holding throughout (type): physicochemical
Data set [1] can be described thus: Stability (thermal, light, oxidation in air) as described. The source says:
Any one of several photo-initiators is used in the present invention, wherein the photo-initiators can be either component (A): visible light photo-initiator A or component (B): visible light photo-initiator B. Visible light photo-initiator A is, but not limited to, Bis (η5-2,4-cylcopentadian-1-yl)-bis (2,6-di-fluoro-3-(1H-pyrrol-1-yl) phenyl) titanium. […] More specifically, visible light photo-initiator A is particularly suitable for the curing of photopolymers for imaging or information storage applications where extremely high photosensitivity is required.
It is worth to mention that visible light photo-initiator A is sensitive to visible light and any exposure to sunlight must be avoided. And, the visible light photo-initiator A must be stored in low temperature, which is below 25° C., and dry environment. […] Therefore, opened drums are required to close after use to protect the product against light.
Accordingly, visible light photo-initiator B is, but not limited to, 4,4′-Bis (diethylamino) benzophenone. Visible light photo-initiator B is both an aromatic ketone and a tertiary amine, and acts both as a photosensitizer and an amine synergist.

Data set [2] can be described thus: Solubility of visible light photo-initiator A in solvents. Conditions: 25° C. The source says: The following table 2 lists the solubility of the visible light photo-initiator A of the first preferred embodiment of the visible light dryable nail coating according to this present invention.
A short description of data set [3]: Solubility of visible light photo-initiator B in solvents. Conditions: 20° C. An excerpt:
The following table 5 lists the solubility of the visible light photo-initiator B of the first preferred embodiment of the visible light dryable nail coating according to this present invention.

The nature of data set [4]: Specification solubility test in acetone. An excerpt: The following table 4 lists the specification of the visible light photo-initiator B of the first preferred embodiment of the visible light dryable nail coating according to this present invention.

With `Fc1ccc(-n2cccc2)c(F)[c]1[Ti+2][c]1c(F)ccc(-n2cccc2)c1F.c1cc[cH-]c1.c1cc[cH-]c1` [visible light photo-initiator A, Bis (η5-2,4-cylcopentadian-1-yl)-bis (2,6-di-fluoro-3-(1H-pyrrol-1-yl)phenyl) titanium], the Thermal stability entry in data set [1] is listed as “good thermal stability”. In addition, the Light sensitivity entry in data set [1] (dissolved in a solvent or a formulation, daylight and standard fluorescence bulbs) is “extremely sensitive to daylight and light from standard fluorescence bulbs”. In addition, the Solubility in data set [2] (Acetone) was 30 g in 100 ml solvent; in data set [2] (Butyl Acetate), 2 g in 100 ml solvent; in data set [2] (HDDA) it was 10 g in 100 ml solvent; in data set [2] (MEK) it was 30 g in 100 ml solvent; in data set [2] (Toluene) it was 10 g in 100 ml solvent; in data set [2] (Water), under 0.5 g in 100 ml solvent.

As to `CCN(CC)c1ccc(C(=O)c2ccc(N(CC)CC)cc2)cc1` [visible light photo-initiator B, 4,4′-Bis (diethylamino) benzophenone], the Resistance to oxidation entry in data set [1] (exposure in air, versus most commercially available EMK) was “more resistant to oxidation by exposure in air than most commercially available EMK”. Moreover, the Solubility was 30 % w/w in data set [3] (Acetone); 30 % w/w in data set [3] (Butyl Acetate); 24 % w/w in data set [3] (Ethyl acetate); 7.0 % w/w in data set [3] (Methanol); 25 % w/w in data set [3] (Toluene); under 0.01 % w/w in data set [3] (Water). In addition, in data set [4], the “Solubility (3 g/10 mL Acetone)” value is recorded as “Clear solution”.
